1 compound from paper PMC12289626, “Aloin protects against UVB-induced apoptosis by modulating integrated signaling pathways” (Frontiers in Pharmacology, 2025) can be followed below.

One assay has as its target T1, JNK1 (Homo sapiens, UniProt P45983).
T1 construct: gene MAPK8
The assay is described as follows: ADP-Glo kinase assay with Promega JNK1 Kinase Enzyme System. It counts as biochemical. In general terms: ADP-Glo turns the ADP formed in a reaction into a luminescent signal.

A further assay concerns the target T2, p38α (Homo sapiens, UniProt Q16539).
T2 construct: gene MAPK14
Description: ADP-Glo kinase assay with Promega p38α Kinase Enzyme System. The assay is classed as biochemical.

T1 sequence (P45983 whole entry): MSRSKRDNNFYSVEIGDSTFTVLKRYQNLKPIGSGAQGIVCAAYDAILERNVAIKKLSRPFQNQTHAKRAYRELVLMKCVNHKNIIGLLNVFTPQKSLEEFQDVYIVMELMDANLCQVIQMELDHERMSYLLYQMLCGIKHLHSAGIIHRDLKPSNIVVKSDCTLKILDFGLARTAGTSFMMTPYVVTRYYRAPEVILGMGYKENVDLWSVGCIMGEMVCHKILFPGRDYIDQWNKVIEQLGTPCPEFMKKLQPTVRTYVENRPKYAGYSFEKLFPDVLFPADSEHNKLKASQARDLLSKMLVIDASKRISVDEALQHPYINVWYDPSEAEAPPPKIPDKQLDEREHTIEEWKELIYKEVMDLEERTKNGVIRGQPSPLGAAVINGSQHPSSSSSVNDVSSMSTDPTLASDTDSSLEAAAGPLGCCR
T2 sequence (Q16539 2-360): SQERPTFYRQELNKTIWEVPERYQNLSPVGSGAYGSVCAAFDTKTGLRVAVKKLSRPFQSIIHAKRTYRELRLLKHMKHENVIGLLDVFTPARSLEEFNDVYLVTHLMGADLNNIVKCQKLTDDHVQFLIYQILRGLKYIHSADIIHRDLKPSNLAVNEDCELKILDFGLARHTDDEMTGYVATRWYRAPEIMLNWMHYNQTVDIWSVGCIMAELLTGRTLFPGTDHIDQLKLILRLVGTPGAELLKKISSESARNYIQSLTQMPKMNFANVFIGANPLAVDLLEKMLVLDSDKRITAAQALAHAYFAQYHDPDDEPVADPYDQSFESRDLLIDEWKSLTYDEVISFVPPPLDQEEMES

As usually defined, the IC50 is the concentration at which inhibition is half-maximal. Read a low IC50 as inhibition by little substance. In the case of `O=C1c2c(O)cccc2C([C@@H]2O[C@H](CO)[C@@H](O)[C@H](O)[C@H]2O)c2cc(CO)cc(O)c21` (some centres unmarked) [aloin], the IC50 was 3920 µM at JNK1 and 223 µM against p38α.
